Experimental data reported in the NIST ThermoML archive (doi:10.1021/je300358u).

Assays:
[1] = 101 kPa, Liquid
[2] = xn = mol fraction of the nth substance listed; settings: 101 kPa, Liquid
[3] = mn = molality of the nth substance listed, in mol/kg; settings: 101 kPa, Liquid

CN(C)C=O [dimethylformamide]
[1]
Settings	mass density [kg/m3]
293.15 K	948.742
298.15 K	943.976
303.15 K	939.201
308.15 K	934.425

CN(C)C=O [dimethylformamide] + O
mass density [kg/m3], [2]
Settings	293.15 K	298.15 K	303.15 K	308.15 K
x2 = 0	948.742	943.976	939.201	934.425
x2 = 0.1	953.736	948.984	944.221	939.444
x2 = 0.2	959.305	954.568	949.818	945.04
x2 = 0.3	965.7	960.987	956.248	951.488
x2 = 0.4	972.992	968.301	963.582	958.821
x2 = 0.5	980.854	976.205	971.522	966.807
x2 = 0.6	988.587	984.021	979.424	974.79
x2 = 0.7	995.526	991.172	986.773	982.324
x2 = 0.8	999.822	995.944	992.004	988.003
x2 = 0.9	999.742	996.891	993.926	990.852
x2 = 0.92	999.208	996.65	993.962	991.147
x2 = 0.94	998.608	996.378	993.992	991.46
x2 = 0.96	998.059	996.181	994.123	991.894
x2 = 0.98	997.768	996.264	994.548	992.639

NC(N)=O [urea] + CN(C)C=O
mass density [kg/m3], [3]
Settings	m1 = 0.02524	m1 = 0.05973	m1 = 0.07556	m1 = 0.1157	m1 = 0.1479	m1 = 0.1749	m1 = 0.2003	m1 = 0.2305
293.15 K	949.268	949.989	950.317	951.155	951.829	952.395	952.924	953.553
298.15 K	944.504	945.228	945.556	946.396	947.074	947.644	948.173	948.805
303.15 K	939.731	940.469	940.781	941.642	942.307	942.893	943.423	944.061
308.15 K	934.955	935.685	936.015	936.861	937.543	938.117	938.649	939.284

NC(N)=O [urea] + O
mass density [kg/m3], [3]
Settings	m1 = 0.02557	m1 = 0.05326	m1 = 0.07468	m1 = 0.09388	m1 = 0.1236	m1 = 0.1442	m1 = 0.1762	m1 = 0.2005
293.15 K	998.624	999.077	999.427	999.747	1000.23	1000.57	1001.1	1001.5
298.15 K	997.458	997.903	998.251	998.559	999.04	999.367	999.891	1000.28
303.15 K	996.057	996.499	996.841	997.145	997.618	997.949	998.455	998.84
308.15 K	994.437	994.868	995.206	995.501	995.97	996.288	996.793	997.172
